The values that follow come from patent US6589954B1, “Compounds and methods to treat cardiac failure and other disorders” (Scios, Inc., priority 1998, dated 2003).

Common to all, as to assay type: biochemical
The target in one assay is p38β (Homo sapiens, UniProt Q15759). In words: p38 kinase inhibition assay, p38β. The method, then:
The compounds to be tested were solubilized in DMSO and diluted into water to the desired concentrations. The p38 kinase was diluted to 10 μg/ml into a buffer containing 20 mM MOPS, pH 7.0, 25 mM beta-glycerol phosphate, 2 mg/ml gelatin, 0.5 mM EGTA, and 4 mM DTT.
The reaction was carried out by mixing 20 μl test compound with 10 μl of a substrate cocktail containing 500 μg/ml peptide substrate and 0.2 mM ATP (+200 μCi/ml gamma-32P-ATP) in a 4×assay buffer. The reaction was initiated by the addition of 10 μl of p38 kinase. Final assay conditions were 25 mM MOPS, pH 7.0, 26.25 mM beta-glycerol phosphate, 80 mM KCl, 22 mM MgCl2, 3 mM MgSO4, 1 mg/ml gelatin, 0.625 mM. […] After a 40 minute incubation at room temperature, the reaction was stopped by the addition of 10 μl per reaction of 0.25 M phosphoric acid.
A portion of the reaction was spotted onto a disk of P81 phosphocellulose paper, the filters were dried for 2 minutes and then washed 4× in 75 mM H3PO4. The filters were rinsed briefly in 95% ethanol, dried, then placed in scintillation vials with liquid scintillation cocktail.
Alternatively, the substrate is previously biotinylated and the resulting reactions are spotted on SAM^2TM streptavidin filter squares (Promega). The filters are washed 4× in 2M NaCl, 4× in 2M NaCl with 1% phosphoric acid, 2× in water, and briefly in 95% ethanol. The filter squares are dried and placed in scintillation vials with liquid scintillation cocktail.
(§1) Counts incorporated are determined on a scintillation counter. Relative enzyme activity is calculated by subtracting background counts (counts measured in the absence of enzyme) from each result, and comparing the resulting counts to those obtained in the absence of inhibitor. IC50 values were determined with curve-fitting plots available with common software packages. Approximate IC50 values were calculated using formula
(§2) where A=fractional activity and i=total inhibitor concentration.
Activity with regard to p38β was also tested for compounds of the invention to determine the influence of the position of the piperidinyl or piperazinyl substituent. The influence of substitution on the benzyl moiety attached to the 4-position of the piperazine or piperidine was also tested.

In another assay the target is p38α (Homo sapiens, UniProt Q16539). In words: Assay for p38 kinase inhibition (p38α).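 Further: radiometric p38 kinase assay, peptide substrate phosphorylation with γ-32P-ATP, 40 min at room temperature, incorporated counts measured by scintillation, inhibition relative to uninhibited kinase activity.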
The target in another assay is ERK-2 (Homo sapiens, UniProt P28482). In words: Kinase specificity, ERK-2. The conditions noted are these: approximate IC50; tested at 50 μM, calculated using the formula in Example 22. The procedure: as §1, §2
(§3) The specificity of the compounds of the invention was also tested with respect to other kinases, including p38-γ, ERK-2, PKA, PKC, cdc-2, EGF-R, and DNA-PK as shown in Table 4. The compounds tested are the 4-benzylpiperidinyl indole-5- and 6-carboximides with the number indicating the ring position of the carboxamide.
(§4) The exception is for p38α values where the IC50 values were determined from concentration dependent curve fitting analysis.

For a further assay, the target named is DNA-PK (Homo sapiens, UniProt P78527). In words: Kinase specificity, DNA-PK. The note with it: approximate IC50; tested at 50 μM, calculated using the formula in Example 22. The method, then: as §1, §2, §3, §4
The next assay has as its target PKA (Homo sapiens, UniProt P17612). In words: Kinase specificity, PKA. The conditions noted are these: approximate IC50; tested at 50 μM, calculated using the formula in Example 22. The procedure: as §1, §2, §3, §4
For a further assay, the target named is T1, p38-γ (Homo sapiens, UniProt P53778).
T1 sequence (P53778 1-367): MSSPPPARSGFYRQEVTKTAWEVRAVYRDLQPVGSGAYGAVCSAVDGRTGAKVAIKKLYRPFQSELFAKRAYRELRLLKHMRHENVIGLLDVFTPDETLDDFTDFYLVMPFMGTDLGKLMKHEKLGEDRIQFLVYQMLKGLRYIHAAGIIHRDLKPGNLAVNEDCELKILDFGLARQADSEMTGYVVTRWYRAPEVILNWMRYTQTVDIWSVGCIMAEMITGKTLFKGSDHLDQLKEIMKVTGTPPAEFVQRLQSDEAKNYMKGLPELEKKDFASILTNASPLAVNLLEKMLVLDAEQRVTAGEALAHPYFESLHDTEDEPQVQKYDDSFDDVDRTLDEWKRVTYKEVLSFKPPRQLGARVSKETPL
The assay is described as follows: Kinase specificity, p38-γ. The note with it: approximate IC50; tested at 50 μM, calculated using the formula in Example 22. The method, then:
as §1, §2, §3, §4

A further assay deals with EGF-R (Homo sapiens, UniProt P00533). The assay is described as follows: Kinase specificity, EGF-R. The note with it: approximate IC50; tested at 50 μM, calculated using the formula in Example 22. The procedure: as §1, §2, §3, §4
In the next assay the target is cdc2 (Homo sapiens, UniProt P06493). In words: Kinase specificity, cdc2. The conditions noted are these: approximate IC50; tested at 50 μM, calculated using the formula in Example 22. The procedure:
as §1, §2, §3, §4

The next assay concerns the target PKC. In words: Kinase specificity, PKC. The conditions noted are these: approximate IC50; tested at 50 μM, calculated using the formula in Example 22. The procedure:
as §1, §2, §3, §4

Setting [1] is: at 50 μM concentration of the compound, Table 3, read-out: percent inhibition of p38β activity.
[2] abbreviates: Table 5, read-out: IC50, inhibition of p38α.
Setting [3] is: Table 1, by ring position of the piperidinyl or piperazinyl substituent on indole, read-out: IC50 for inhibition of p38α.
The mark [4] stands for this setting: at 50 μM concentration of the compound, Table 3.

Where “and” joins values, the source holds several entries; their conditions need not be identical. Equal values may be shown once. Read-outs that look alike come from different tables or passages of the source.

p38α, sequence (Q16539 whole entry): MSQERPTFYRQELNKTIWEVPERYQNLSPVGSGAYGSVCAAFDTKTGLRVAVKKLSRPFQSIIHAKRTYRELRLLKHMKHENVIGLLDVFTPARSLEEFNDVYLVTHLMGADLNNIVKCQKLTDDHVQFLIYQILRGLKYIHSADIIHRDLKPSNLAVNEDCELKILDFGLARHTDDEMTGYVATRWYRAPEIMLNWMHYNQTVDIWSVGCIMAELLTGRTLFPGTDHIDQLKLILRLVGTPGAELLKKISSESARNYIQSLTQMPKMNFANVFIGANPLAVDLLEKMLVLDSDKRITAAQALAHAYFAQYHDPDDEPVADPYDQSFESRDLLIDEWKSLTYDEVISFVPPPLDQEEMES
p38β, sequence (Q15759 whole entry): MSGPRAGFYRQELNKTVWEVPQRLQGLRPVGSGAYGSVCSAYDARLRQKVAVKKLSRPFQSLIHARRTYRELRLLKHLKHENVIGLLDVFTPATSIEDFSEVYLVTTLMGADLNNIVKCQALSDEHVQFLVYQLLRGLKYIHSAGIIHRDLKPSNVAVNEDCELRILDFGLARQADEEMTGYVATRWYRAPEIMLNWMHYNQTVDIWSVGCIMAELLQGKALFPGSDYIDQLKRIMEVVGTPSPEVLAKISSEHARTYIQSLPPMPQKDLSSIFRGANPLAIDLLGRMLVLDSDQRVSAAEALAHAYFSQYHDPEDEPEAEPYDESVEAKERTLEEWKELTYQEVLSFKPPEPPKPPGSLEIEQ
ERK-2, sequence (P28482 whole entry, species assumed): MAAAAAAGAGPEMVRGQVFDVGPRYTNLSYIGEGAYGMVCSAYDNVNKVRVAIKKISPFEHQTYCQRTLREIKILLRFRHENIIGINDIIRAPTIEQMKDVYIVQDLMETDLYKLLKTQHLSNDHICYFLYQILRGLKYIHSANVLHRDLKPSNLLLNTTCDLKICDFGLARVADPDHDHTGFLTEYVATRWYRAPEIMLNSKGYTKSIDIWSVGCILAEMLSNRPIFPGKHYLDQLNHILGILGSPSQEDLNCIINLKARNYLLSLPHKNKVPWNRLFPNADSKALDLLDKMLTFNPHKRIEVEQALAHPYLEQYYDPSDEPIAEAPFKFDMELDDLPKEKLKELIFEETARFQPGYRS
EGF-R, sequence (P00533 25-1210, species assumed): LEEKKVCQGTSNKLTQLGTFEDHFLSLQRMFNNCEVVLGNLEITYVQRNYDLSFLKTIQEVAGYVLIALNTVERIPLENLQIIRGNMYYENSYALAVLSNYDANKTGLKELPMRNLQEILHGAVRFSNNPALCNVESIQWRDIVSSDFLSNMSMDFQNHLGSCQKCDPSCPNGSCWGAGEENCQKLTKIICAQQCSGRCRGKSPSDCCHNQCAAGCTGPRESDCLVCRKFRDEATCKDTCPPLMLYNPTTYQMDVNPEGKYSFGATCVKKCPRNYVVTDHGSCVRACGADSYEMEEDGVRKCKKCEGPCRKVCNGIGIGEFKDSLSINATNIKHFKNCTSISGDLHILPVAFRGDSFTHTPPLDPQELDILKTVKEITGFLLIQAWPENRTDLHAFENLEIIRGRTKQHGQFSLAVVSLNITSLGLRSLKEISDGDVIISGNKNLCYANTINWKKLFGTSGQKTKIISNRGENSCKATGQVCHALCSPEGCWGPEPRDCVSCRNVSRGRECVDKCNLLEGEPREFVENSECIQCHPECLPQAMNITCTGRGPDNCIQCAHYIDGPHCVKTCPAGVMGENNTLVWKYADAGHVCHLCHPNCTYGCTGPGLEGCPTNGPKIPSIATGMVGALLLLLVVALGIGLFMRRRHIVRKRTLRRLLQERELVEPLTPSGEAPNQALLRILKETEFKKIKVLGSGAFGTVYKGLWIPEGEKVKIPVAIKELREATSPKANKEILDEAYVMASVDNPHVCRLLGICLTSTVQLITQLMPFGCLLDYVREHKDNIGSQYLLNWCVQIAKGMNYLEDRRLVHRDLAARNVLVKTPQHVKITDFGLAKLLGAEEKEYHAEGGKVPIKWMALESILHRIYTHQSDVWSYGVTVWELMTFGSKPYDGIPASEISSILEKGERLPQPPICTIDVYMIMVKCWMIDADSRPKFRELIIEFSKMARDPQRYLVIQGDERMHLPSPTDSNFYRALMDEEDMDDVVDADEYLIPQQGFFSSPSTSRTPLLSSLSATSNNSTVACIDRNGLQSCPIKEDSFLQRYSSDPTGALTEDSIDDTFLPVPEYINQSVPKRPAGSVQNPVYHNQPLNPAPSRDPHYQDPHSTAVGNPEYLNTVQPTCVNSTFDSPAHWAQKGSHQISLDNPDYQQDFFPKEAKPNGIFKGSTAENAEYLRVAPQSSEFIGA
cdc2, sequence (P06493 whole entry, species assumed): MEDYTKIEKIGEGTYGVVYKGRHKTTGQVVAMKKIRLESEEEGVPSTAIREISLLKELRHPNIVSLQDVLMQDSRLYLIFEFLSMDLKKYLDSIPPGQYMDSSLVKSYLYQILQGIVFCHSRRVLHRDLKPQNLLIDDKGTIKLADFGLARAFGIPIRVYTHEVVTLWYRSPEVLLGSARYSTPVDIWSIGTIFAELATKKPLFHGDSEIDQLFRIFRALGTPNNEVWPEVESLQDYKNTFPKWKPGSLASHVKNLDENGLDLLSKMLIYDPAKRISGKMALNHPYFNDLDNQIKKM
cdc2, sequence (P14635 whole entry partner, species assumed): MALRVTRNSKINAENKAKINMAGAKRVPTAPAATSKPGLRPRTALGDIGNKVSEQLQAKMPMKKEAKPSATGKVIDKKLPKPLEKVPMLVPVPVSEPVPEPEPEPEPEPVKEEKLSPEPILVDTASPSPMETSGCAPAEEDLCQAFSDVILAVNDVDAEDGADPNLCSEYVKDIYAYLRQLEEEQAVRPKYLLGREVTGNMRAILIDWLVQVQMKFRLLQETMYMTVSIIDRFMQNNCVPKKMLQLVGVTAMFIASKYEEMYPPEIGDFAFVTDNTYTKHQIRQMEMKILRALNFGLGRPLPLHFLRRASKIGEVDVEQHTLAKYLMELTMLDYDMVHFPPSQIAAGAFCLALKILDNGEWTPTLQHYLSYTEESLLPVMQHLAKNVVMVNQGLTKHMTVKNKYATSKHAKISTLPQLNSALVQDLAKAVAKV

Broadly, the inhibition is the relative decrease from the control value, in per cent. In the case of `O=C(c1cccc2[nH]ccc12)N1CCN(Cc2ccccc2)CC1` [Piperazinyl 4], the inhibition at 50 µM at p38β (setting [1]) was 68%.

Broadly, the IC50 is the concentration that inhibits the measured activity by half. `COc1cc2[nH]cc(C(=O)NCCN(C)C)c2cc1C(=O)N1CCC(Cc2ccccc2)CC1` [6-methoxy-3-(2-dimethylaminoethylamino)carboxamidyl-(4-benzylpiperidinyl)indole-5-carboxamide]: the IC50 at p38α (setting [2]) was found to be 64.6 nM. As to `COc1cc2[nH]ccc2cc1C(=O)N1CCC(Cc2ccc(F)cc2)CC1` [6-methoxy-(4-(4fluorobenzyl)piperidinyl)indole-5-carboxamide], at p38α (setting [2]), the IC50 worked out at 159 nM. `NC(=O)c1ccc2nc(N3CCN(Cc4cccc(Cl)c4)CC3)[nH]c2c1` [4-(3-chlorobenzyl)-piperazinyl-benzimidazole-5-carboxamide]: on p38β (compounds tested at 50 μM), the “inhibition of p38β” value came out at 66%.

As to `O=C(c1cccc2[nH]ccc12)N1CCC(Cc2ccccc2)CC1` [Piperidinyl 4], on p38β (setting [1]), the inhibition at 50 µM is 96%. The IC50 on p38α (setting [3]) was found to be 200 nM. In the case of `Cc1cc2c(Cl)c(C(=O)N3CCC(Cc4ccccc4)CC3)ccc2[nH]1`, the half-maximal inhibitory concentration (IC50) at p38α (setting [2]) was determined as 489 nM. For the same compound, on p38α (at 0.2 μM), testing at 0.2 µM gave an inhibition of 43%.

With `O=C(c1cccc2cc[nH]c12)N1CCC(Cc2ccccc2)CC1` [Piperidinyl 7], the inhibition at 50 µM at p38β (setting [1]) turned out to be 45%. Further, at p38α (setting [3]), the IC50 is > 30000 nM. Regarding `O=C(c1ccc2cc[nH]c2c1)N1CCC(Cc2ccccc2)CC1` [Piperidinyl 6, 4-benzylpiperidinyl-indole-6-carboxamide], the “percent inhibition of p38β activity” value at p38β (setting [4]) was found to be 92%. Also, the half-maximal inhibitory concentration (IC50) is > 300000 nM at ERK-2; 450000 nM at DNA-PK; > 500000 nM on PKA; > 300000 nM on p38-γ; > 500000 nM at EGF-R; > 500000 nM on cdc2. Also, at PKC, the IC50 was > 500000 nM. `CCN(CC)CCn1ccc2cc(C(=O)N3CCC(Cc4ccccc4)CC3)c(OC)cc21` [1-(Diethylaminoethyl)-6-methoxy-(4-benzylpiperidinyl)-indole-5-carboxamide]: the IC50 on p38α (setting [2]) worked out at 184 nM. In the case of `O=C(c1c[nH]c2ccccc12)N1CCN(Cc2ccccc2)CC1` [Piperazinyl 3], the inhibition at 50 µM on p38β (setting [1]) amounted to 77%. Besides, on p38α (setting [3]), the half-inhibitory concentration (IC50) came out at 5440 nM. Consider `O=C(c1cc2ccccc2[nH]1)N1CCC(Cc2ccccc2)CC1` [Piperidinyl 2], for which the inhibition at 50 µM at p38β (setting [1]) was found to be 12%. The IC50 on p38α (setting [3]) was determined as 3260 nM. For `O=C(c1cccc2cc[nH]c12)N1CCN(Cc2ccccc2)CC1` [Piperazinyl 7], the inhibition at 50 µM on p38β (setting [1]) amounted to 7%.

On to `CCN(CC)CCn1ccc2cc(C(=O)N3CCC(Cc4ccc(F)cc4)CC3)ccc21` [1-(Diethylamino)-ethyl-(4′-fluoro-4-benzylpiperidinyl)-indole-5-carboxamide], for which, at p38α (setting [2]), the IC50 amounted to 354 nM. In the case of `CCN(CC)CCCn1ccc2cc(C(=O)N3CCC(Cc4ccccc4)CC3)c(Cl)cc21` [1-(Diethylamino)-n-propyl-6-chloro-(4-benzylpiperidinyl)-indole-5-carboxamide], the IC50 at p38α (setting [2]) stood at 199 nM. Regarding `O=C(c1ccc2[nH]cnc2c1)N1CCC(Cc2ccccc2)CC1` [4-Benzyl-piperidinyl-benzimidazole-5-carboxamide], the inhibition at 50 µM at p38β (compounds tested at 50 μM, read-out: inhibition of p38β) is 85%. Also, on p38α (setting [2]), the IC50 stood at 635 nM.

For `O=C(c1ccc2[nH]ccc2c1)N1CCC(Cc2ccccc2)CC1` [Piperidinyl 5, 4-Benzylpiperidinyl-indole-5-carboxamide], the inhibition at 50 µM on p38β (setting [1]) is 96%. Also, the IC50 was 242 nM at p38α (setting [3]); 523 nM and 577 nM at p38α (setting [2]). For the compound `CC(=O)N1CCC(Cc2ccc(F)cc2)C1` (stereo not shown), at 1 µM the inhibition against p38α (at 1 μM) was 51%. Take `CCN(CC)CCCn1ccc2cc(C(=O)N3CCC(Cc4ccccc4)CC3)ccc21` [1-(Diethylamino)n-propyl-(4-benzylpiperidinyl)-indole-5-carboxamide]: the IC50 on p38α (setting [2]) was found to be 474 nM. For the compound `O=C(c1cc2ccccc2[nH]1)N1CCN(Cc2ccccc2)CC1` [Piperazinyl 2], on p38β (setting [1]), the inhibition at 50 µM was 27%. For the same compound, at p38α (setting [3]), the IC50 is > 30000 nM. In the case of `O=C(c1ccc2c(ccn2C(=O)c2ccncc2)c1)N1CCC(Cc2ccccc2)CC1` [drawing 82], the IC50 on p38α (setting [2]) came out at 871 nM. With `O=C(c1ccc2[nH]cc(CN3CCOCC3)c2c1)N1CCC(Cc2ccccc2)CC1`, the IC50 on p38α (setting [2]) was determined as 6570 nM. In the case of `O=C(c1c[nH]c2ccccc12)N1CCC(Cc2ccccc2)CC1` [Piperidinyl 3], at p38β (setting [1]), the inhibition at 50 µM amounted to 96%. Further, the half-maximal inhibitory concentration (IC50) on p38α (setting [3]) stood at 200 nM.

Consider `O=C(c1ccc2c(ccn2C(=O)c2ccncc2)c1)N1CCC(Cc2ccccc2)CC1` [drawing 83], for which the IC50 at p38α (setting [2]) was found to be 405 nM.

Regarding `O=C(c1ccc2c(C(=O)C(F)(F)F)c[nH]c2c1)N1CCC(Cc2ccccc2)CC1` [3-trifluoroacetyl-(4-benzylpiperidinyl)indole-6-carboxamide], the “inhibition of p38α” value against p38α (at 1 μM) came out at 41%. With `O=C(c1ccc2[nH]ccc2c1)N1CCN(Cc2ccccc2)CC1` [Piperazinyl 5], the inhibition at 50 µM at p38β (setting [1]) came to 59%. As to `O=C(c1ccc2cc[nH]c2c1)N1CCN(Cc2ccccc2)CC1` [Piperazinyl 6], on p38β (setting [1]), the inhibition at 50 µM worked out at 56%. Further, on p38α (setting [3]), the IC50 came to 4970 nM.

With `O=C(c1ccc2[nH]cnc2c1)N1CCC(Cc2ccc(F)cc2)CC1`, the IC50 at p38α (setting [2]) amounted to 390 nM. “4-(4-Chlorobenzyl)piperazinyl-indole-5-carboxamide [Piperazinyl 5 4-Cl]”: on p38β (setting [4]), the “percent inhibition of p38β activity” value is recorded as 77%.
